Data on 9 molecules can be found in patent US8158791B2, “Aza-substituted spiro derivatives” (MSD K.K., priority 2005, dated 2012).

The target in the experiment is T1, human histamine-H3 receptor (Homo sapiens, UniProt Q9Y5N1).
T1 construct: expressed in transfected cells; host or cells: HEK293 and CHO-K1 (membrane preparation)
T1 sequence (Q9Y5N1 whole entry): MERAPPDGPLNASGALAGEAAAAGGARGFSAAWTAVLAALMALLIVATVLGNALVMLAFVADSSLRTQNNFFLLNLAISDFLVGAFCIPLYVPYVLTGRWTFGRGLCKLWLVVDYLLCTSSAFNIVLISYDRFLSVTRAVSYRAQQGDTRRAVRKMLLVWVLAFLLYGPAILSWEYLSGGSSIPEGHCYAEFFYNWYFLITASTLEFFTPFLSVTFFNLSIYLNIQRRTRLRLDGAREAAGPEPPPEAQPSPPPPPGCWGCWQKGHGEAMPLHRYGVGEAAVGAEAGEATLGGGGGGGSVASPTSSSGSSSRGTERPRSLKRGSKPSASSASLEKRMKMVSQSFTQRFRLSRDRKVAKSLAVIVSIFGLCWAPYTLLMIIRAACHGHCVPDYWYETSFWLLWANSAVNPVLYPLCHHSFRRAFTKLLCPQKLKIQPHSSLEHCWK
Description: Histamine analogue-binding inhibition test. The settings on record: 50% inhibitory concentration to specific [3H]N-α-methylhistamine binding; membrane specimen of histamine-H3 receptor expression cells; 25° C., 2 hours, pH 7.4. The text has this:
A cDNA sequence coding for a human histamine-H3 receptor [see WO00/39164) was cloned with expression vectors pCR2.1, pEF1× (by Invitrogen) and pCI-neo (by Promega). The resulting expression vector was transfected into host cells, HEK293 and CHO-K1 (American Type Culture Collection), according to a cationic lipid process [see Proceedings of the National Academy of Sciences of the United States of America, Vol., 84, p. 7413 (1987)] to obtain histamine-H3 receptor expression cells.
A membrane specimen prepared from the cells having expressed a histamine-H3 receptor was incubated in an assay buffer (50 mM Tris buffer, pH 7.4) along with a test compound and 20,000 cpm [3H]N-α-methylhistamine (by NEN) therein, at 25° C. for 2 hours, and then filtered through a glass filter GF/C. After washed with 50 mM Tris buffer (pH 7.4), the radioactivity on the glass filter was determined. The non-specific binding was determined in the presence of 10 μM thioperamide (by SIGAM), and the 50% inhibitory concentration (IC50) of the test compound to the specific N-alpha-methylhistamine binding was calculated [see Molecular Pharmacology, Vol. 55, p. 1101 (1999)].
As a reminder, the IC50 is the midpoint of a concentration-inhibition curve. A high value points to a need for much substance. For `CN(CCN1CCCC1)C(=O)[C@H]1CC[C@@]2(CC1)OC(=O)c1ncccc12` [Example 3, Trans-3′-oxo-N-methyl-N-(2-pyrrolidin-1-ylethyl)-spiro[cyclohexane-1,1′-(3′H)-4′-azaisobenzofuran]-4-carboxamide], the IC50 amounted to 0.72 nM.

Molecule `COc1ccc2c(n1)C(=O)O[C@]21CC[C@H](C(=O)N(C)CCN2CCCC2)CC1` [Example 13, Trans-5′-methoxy-3′-oxo-N-methyl-N-(2-pyrrolidin-1-ylethyl)-spiro[cyclohexane-1,1′-(3′H)-4′-azaisobenzofuran]-4-carboxamide] showed an IC50 of 0.92 nM.

In turn, `COc1ccc2c(n1)C(=O)O[C@]21CC[C@H](C(=O)N(C)CCN2CCCCC2)CC1` [Example 11, Trans-5′-methoxy-3′-oxo-N-methyl-N-(2-piperidin-1-ylethyl)-spiro[cyclohexane-1,1′-(3′H)-4′-azaisobenzofuran]-4-carboxamide] returned an IC50 of 0.92 nM.

For the molecule `Cc1nccc2c1C(=O)O[C@]21CC[C@H](C(=O)N(C)CCN2CCCCC2)CC1` [Example 41, Trans-4′-methyl-3′-oxo-N-methyl-N-(2-piperidin-1-ylethyl)-spiro[cyclohexane-1,1′-(3′H)-5′-azaisobenzofuran]-4-carboxamide], the IC50 worked out at 0.51 nM.

On to `CN(CCN1CCCCC1)C(=O)[C@H]1CC[C@@]2(CC1)OC(=O)c1c(-c3cnn(C)c3)nccc12` [Example 45, Trans-4′-(1-methyl-1H-pyrazol-4-yl)-3′-oxo-N-methyl-N-(2-piperidin-1-ylethyl)-spiro[cyclohexane-1,1′-(3′H)-5′-azaisobenzofuran]-4-carboxamide], for which the IC50 came to 0.14 nM.

As to `CN(CCN1CCCCC1)C(=O)[C@H]1CC[C@@]2(CC1)OC(=O)c1nc(-c3cnccn3)ccc12` [Example 54, Trans-5′-pyrazinyl-3′-oxo-N-methyl-N-(2-piperidin-1-ylethyl)-spiro[cyclohexane-1,1′-(3′H)-4′-azisobenzofuran]-4-carboxamide], the IC50 stood at 0.07 nM.

`CN(CCN1CCCC1)C(=O)[C@H]1CC[C@@]2(CC1)OC(=O)c1nc(N3CCCCC3)ccc12` [Example 17, Trans-5′-(piperidin-1-yl)-3′-oxo-N-methyl-N-(2-pyrrolidin-1-ylethyl)-spiro[cyclohexane-1,1′-(3′H)-4′-azaisobenzofuran]-4-carboxamide]: the IC50 was found to be 1.9 nM.

Molecule `COc1nccc2c1C(=O)O[C@]21CC[C@H](C(=O)N(C)CCN2CCCCC2)CC1` [Example 34, Trans-4′-methoxy-3′-oxo-N-methyl-N-(2-piperidin-1-ylethyl)-spiro[cyclohexane-1,1′-(3′H)-5′-azaisobenzofuran]-4-carboxamide] came in with an IC50 of 0.32 nM.

Take `CN(CCN1CCCC1)C(=O)[C@H]1CC[C@@]2(CC1)OC(=O)c1nc(-c3ccccc3)ccc12` [Example 21, Trans-5′-phenyl-3′-oxo-N-methyl-N-(2-pyrrolidin-1-ylethyl)-spiro[cyclohexane-1,1′-(3′H)-4′-azaisobenzofuran]-4-carboxamide]: the IC50 stood at 0.42 nM.
